Assay [1] concerns the target T1, KRas G12D (Homo sapiens, UniProt P01116, G12D). Description: KRas G12D Binding Assay (TR-FRET displacement of labeled tracer). Further details: corresponding to amino acids 1:169, produced at Array BioPharma; biotin (protein is biotinylated). As to conditions: TR-FRET displacement of Cy5 labelled tracer, biotinylated GDP-loaded KRAS G12D (aa 1:169), 60 minute incubation at 22° C. In outline:
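Biotinylated GDP-loaded human KRAS G12D (aa 1–169) incubated with Cy5 tracer, Eu-streptavidin and compound (2% DMSO final) in 50 mM HEPES pH 7.5, 5 mM MgCl2, 0.005% Tween-20, 1 mM DTT, 60 min at 22 °C. TR-FRET ratio converted to percent of control; IC50 at 50 POC from 4-parameter logistic fit.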
Target sequence in this assay (P01116 1-169 isoform P01116-2 G12D): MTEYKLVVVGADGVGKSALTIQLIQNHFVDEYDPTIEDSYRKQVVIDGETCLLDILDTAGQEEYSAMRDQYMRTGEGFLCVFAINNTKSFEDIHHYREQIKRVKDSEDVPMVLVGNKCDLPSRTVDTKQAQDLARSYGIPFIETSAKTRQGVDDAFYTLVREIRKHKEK

Assay [2] has as its system KRas G12D-mediated Phosphorylation of ERK. Nature of the assay: Inhibition of KRas G12D-mediated Phosphorylation of ERK in AGS cells. The format is cell-based. As to conditions: Homo sapiens; AGS cells expressing G12D, 3 hours, phospho-ERK normalized to GAPDH. In outline:
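AGS cells (endogenous KRas G12D) were treated with compounds for 3 h in 0.5% DMSO, then fixed, permeabilized and immunostained. The phospho-ERK (Thr202/Tyr204) signal was normalized to GAPDH in-cell by infrared detection and expressed as % of DMSO control. IC50 came from a 4-parameter fit.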

For assay [3], the target named is T1, KRas G12D. Description: KRas G12D Surface Plasmon Resonance (SPR) Binding Assay. As to conditions: Biacore T200, biotinylated Avidin-tagged KRAS protein on SA chip, 20 C, 1:1 binding model. How it is done:
This Example illustrates that exemplary compounds of the present invention bind to KRas G12D as measured by surface plasmon resonance (SPR). Briefly, 1 L of 1.05×HBS-Mg buffer (262.5 mM BioUltra Hepes, pH 7.5, 157.5 mM NaCl, 105 mM MgCl2, 0.525 mM TCEP, […] Brij-35) was prepared and filter sterilized using a 0.22 μm bottle top filter. Approximately 50 mL of 1.05×HBS-Mg buffer was removed and saved for future dilutions. A 50 mL aliquot of DMSO (Sigma Aldrich DMSO Lot. #SHBK2079) was added and continued to stir for 10 minutes, creating the final 1.0×HBS-Mg buffer (250 mM BioUltra Hepes pH 7.5, 150 mM NaCl, 100 mM MgCl2, 0.5 mM TCEP, 0.03% Brij-35). Biacore T200 instrument was primed using 1.0×HBS-Mg buffer before docking a GE Streptavidin (SA) chip and then primed two additional times prior to beginning the immobilization step. All immobilized protein mixtures were created using 3-5 mg/mL Biotinylated Avidin-tagged KRAS protein using the following immobilization settings: SA chip type, 1 flow cells per cycle, 720 second contact time, and 5 μL/min flow rate. Normalization of the detector was also performed during the immobilization step using the GE BiaNormalize solution. All compounds were diluted to 10 mM in 100% DMSO prior to being diluted 20× in 1.05× buffer. Another 10× dilution was created using 1.0× buffer prior to performing a series of 3× dilutions to create a compound concentration curve using the following assay settings: 20 C analysis temperature, General Settings=10 Hz data collection rate and multi-detection; Assay Steps=all set to LMW kinetics; Cycle Types=LMW kinetics (60s contact time, 120s dissociation time, 100 μL/min flow rate, extra wash after injection with 50% DMSO, flow path 1,2,3,4); Flow path detection=2-1, 4-3). Data evaluation was performed using the Biacore T200 Evaluation software and data fit to 1:1 binding model.
Target sequence in this assay (P01116 1-188 isoform P01116-2 G12D): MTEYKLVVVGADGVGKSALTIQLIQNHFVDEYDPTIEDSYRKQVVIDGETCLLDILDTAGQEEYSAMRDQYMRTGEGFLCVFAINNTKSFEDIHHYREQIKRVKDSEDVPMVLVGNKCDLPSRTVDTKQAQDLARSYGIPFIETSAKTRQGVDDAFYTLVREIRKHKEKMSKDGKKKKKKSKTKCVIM
(In general: Surface plasmon resonance follows binding to a sensor surface in real time, without labels.)

pIC50, pKd: −log10 of the molar value. Bounds are passed on as bounds.

One may read the pIC50 as the negative decadic logarithm of the IC50, by convention in mol/L. As a reminder, the pKd is the negative decadic logarithm of the Kd, by convention in mol/L. A low value points to a large Kd. `Clc1cccc2cncc(N3CCc4c(nc(OCC56CCCN5CCC6)nc4N4C[C@H]5CC[C@@H](C4)N5)C3)c12` [Example 30, 4-((1R,5S)-3,8-diazabicyclo[3.2.1]octan-3-yl)-7-(5-chloroisoquinolin-4-yl)-2-((tetrahydro-1H-pyrrolizin-7a(5H)-yl)methoxy)-5,6,7,8-tetrahydropyrido[3,4-d]pyrimidine]: the pIC50 on KRas G12D [1] was 7.77; in assay [2], 5.58. At KRas G12D [3], this molecule gave a pKd of 7.06.

Consider `CN1CCC[C@H]1COc1nc2c(c(N3C[C@@H]4C[C@@H](O)[C@H](C3)N4)n1)CCN(c1cccc3cccc(Cl)c13)C2` [Example 95, (1S,5S,6R)-3-(7-(8-chloronaphthalen-1-yl)-2-(((S)-1-methylpyrrolidin-2-yl)methoxy)-5,6,7,8-tetrahydropyrido[3,4-d]pyrimidin-4-yl)-3,8-diazabicyclo[3.2.1]octan-6-ol], for which the pIC50 at KRas G12D [1] was 7.30; in assay [2], < 4.78. Moreover, the pKd at KRas G12D [3] is 7.23.

Take `Oc1cc(N2CCc3c(nc(OC[C@@H]4CCCN4)nc3N3C[C@H]4CC[C@@H](C3)N4)C2)c2ccccc2c1Cl` [Example 27, 4-(4-((1R,5S)-3,8-diazabicyclo[3.2.1]octan-3-yl)-2-(((S)-pyrrolidin-2-yl)methoxy)-5,8-dihydropyrido[3,4-d]pyrimidin-7(6H)-yl)-1-chloronaphthalen-2-ol]: the pIC50 on KRas G12D [1] is 5.80; in assay [2], 4.95. At KRas G12D [3], this molecule had a pKd of 7.04.

`CN1CCC[C@H]1COc1nc2c(c(N3C[C@H]4CC[C@@H](C3)N4)n1)CCN(c1cncc3cccc(Cl)c13)C2` [Example 58, 4-((1R,5S)-3,8-diazabicyclo[3.2.1]octan-3-yl)-7-(5-chloroisoquinolin-4-yl)-2-(((S)-1-methylpyrrolidin-2-yl)methoxy)-5,6,7,8-tetrahydropyrido[3,4-d]pyrimidine]: the pIC50 at KRas G12D [1] is 6.55; in assay [2], < 4.78. In addition, the pKd on KRas G12D [3] was 6.36.

With `CN1CCC[C@H]1COc1nc2c(c(N3C[C@H]4CC[C@@H](C3)N4)n1)CCN(c1cc(O)c(Cl)c3ccccc13)C2` [Example 24, 4-(4-((1R,5S)-3,8-diazabicyclo[3.2.1]octan-3-yl)-2-(((S)-1-methylpyrrolidin-2-yl)methoxy)-5,8-dihydropyrido[3,4-d]pyrimidin-7(6H)-yl)-1-chloronaphthalen-2-ol], the pIC50 was 5.87 on KRas G12D [1] and < 4.78 in assay [2]. This molecule also had a pKd on KRas G12D [3] of 7.42.

Consider `CN1CCC[C@H]1COc1nc2c(c(N3C[C@H]4CC[C@@H](C3)N4)n1)CCN(c1cc(C(F)F)cc3ccccc13)C2` [Example 56, 4-((1R,5S)-3,8-diazabicyclo[3.2.1]octan-3-yl)-7-(3-(difluoromethyl)naphthalen-1-yl)-2-(((S)-1-methylpyrrolidin-2-yl)methoxy)-5,6,7,8-tetrahydropyrido[3,4-d]pyrimidine], for which the values for the pIC50 (on KRas G12D [1]; in assay [2]) were < 5.00 and < 4.78, respectively. This molecule also showed a pKd on KRas G12D [3] of 4.05.

As for `CN1CCC[C@H]1COc1nc2c(c(N3C[C@H]4CC[C@@H](C3)N4)n1)CCN(c1cc(O)cc3ccccc13)C2` [Example 1, 4-(4-((1R,5S)-3,8-diazabicyclo[3.2.1]octan-3-yl)-2-(((S)-1-methylpyrrolidin-2-yl)methoxy)-5,8-dihydropyrido[3,4-d]pyrimidin-7(6H)-yl)naphthalen-2-ol], the pIC50 was 7.31 at KRas G12D [1] and 5.63 in assay [2]. In addition, on KRas G12D [3], the pKd is 6.96.

Regarding `FC1CN2CCCC2(COc2nc3c(c(N4CC5CC(F)C(C4)N5)n2)CCN(c2cccc4cccc(Cl)c24)C3)C1` (racemic) [Example 44, 7-(8-chloronaphthalen-1-yl)-4-(6-fluoro-3,8-diazabicyclo[3.2.1]octan-3-yl)-2-((2-fluorotetrahydro-1H-pyrrolizin-7a(5H)-yl)methoxy)-5,6,7,8-tetrahydropyrido[3,4-d]pyrimidine], the pIC50 was 7.36 on KRas G12D [1] and 5.04 in assay [2]. On KRas G12D [3], this molecule gave a pKd of 7.36.

`CN1CCC[C@H]1COc1nc2c(c(N3C[C@H]4C[C@@H](O)[C@@H](C3)N4)n1)CCN(c1cc(O)cc3ccccc13)C2` (single isomer, unassigned) [Example 54]: the values for the pIC50 (on KRas G12D [1]; in assay [2]) were 7.39 and 5.95, respectively. On KRas G12D [3], this molecule gave a pKd of 3.30.

For the molecule `CC(Oc1nc2c(c(N3C[C@H]4CC[C@@H](C3)N4)n1)CCN(c1cc(O)c(Cl)c3ccccc13)C2)[C@@H]1CCCN1` (stereo partly drawn) [Example 26, 4-(4-((1R,5S)-3,8-diazabicyclo[3.2.1]octan-3-yl)-2-(1-((S)-pyrrolidin-2-yl)ethoxy)-5,8-dihydropyrido[3,4-d]pyrimidin-7(6H)-yl)-1-chloronaphthalen-2-ol], in assay [2], the pIC50 was < 4.78. At KRas G12D [3], the pKd was 6.49.

In assay [2], `CN1CCC[C@H]1COc1nc2c(c(N3C[C@H]4CC[C@@H](C3)N4)n1)CCN(c1cccc3cccc(CCC#N)c13)C2` [Example 80, 3-(8-(4-((1R,5S)-3,8-diazabicyclo[3.2.1]octan-3-yl)-2-(((S)-1-methylpyrrolidin-2-yl)methoxy)-5,8-dihydropyrido[3,4-d]pyrimidin-7(6H)-yl)naphthalen-1-yl)propanenitrile] gave a pIC50 of 4.95. In addition, the pKd at KRas G12D [3] is 6.21.

Consider `CN1CCC[C@H]1COc1nc2c(c(N3C[C@H]4CC[C@@H](C3)N4)n1)CCN(c1cccc3cccc(CCCO)c13)C2` [Example 79, 3-(8-(4-((1R,5S)-3,8-diazabicyclo[3.2.1]octan-3-yl)-2-(((S)-1-methylpyrrolidin-2-yl)methoxy)-5,8-dihydropyrido[3,4-d]pyrimidin-7(6H)-yl)naphthalen-1-yl)propan-1-ol], for which the pIC50 on KRas G12D [1] was 6.31. Moreover, the pKd on KRas G12D [3] is 5.73.

On to `Cc1c(O)cc(N2CCc3c(nc(OC[C@@H]4CCCN4C)nc3N3C[C@H]4CC[C@@H](C3)N4)C2)c2ccccc12` [Example 69, 4-(4-((1R,5S)-3,8-diazabicyclo[3.2.1]octan-3-yl)-2-(((S)-1-methylpyrrolidin-2-yl)methoxy)-5,8-dihydropyrido[3,4-d]pyrimidin-7(6H)-yl)-1-methylnaphthalen-2-ol], for which the negative-log IC50 (pIC50) at KRas G12D [1] is < 5.00. In addition, the pKd at KRas G12D [3] is 4.42.

As to `CN1CCC[C@H]1COc1nc2c(c(N3C[C@H]4CC[C@@H](C3)N4)n1)CCN(c1c(O)cccc1F)C2` [Example 77, 2-(4-((1R,5S)-3,8-diazabicyclo[3.2.1]octan-3-yl)-2-(((S)-1-methylpyrrolidin-2-yl)methoxy)-5,8-dihydropyrido[3,4-d]pyrimidin-7(6H)-yl)-3-fluorophenol], the pIC50 on KRas G12D [1] was < 5.00. The molecule also had a pKd on KRas G12D [3] of 3.58.

`C[C@H]1CC2CN(c3nc(OC[C@@H]4CCCN4C)nc4c3CCN(c3cccc5cccc(Cl)c35)C4)C[C@H]1N2` (single isomer, unassigned) [Example 88] had a pIC50 at KRas G12D [1] of 5.96. The molecule also had a pKd at KRas G12D [3] of 5.68.

On to `CN1CCC[C@H]1COc1nc2c(c(N3C[C@H]4CC[C@@H](C3)N4)n1)CCN(c1cccc3cccc(CCCC#N)c13)C2` [Example 83, 4-(8-(4-((1R,5S)-3,8-diazabicyclo[3.2.1]octan-3-yl)-2-(((S)-1-methylpyrrolidin-2-yl)methoxy)-5,8-dihydropyrido[3,4-d]pyrimidin-7(6H)-yl)naphthalen-1-yl)butanenitrile], for which, at KRas G12D [1], the pIC50 was 5.18. This molecule also had a pKd on KRas G12D [3] of 4.70.

Molecule `CN1CCC[C@H]1COc1nc2c(c(N3C[C@H]4C/C(=C/C#N)[C@@H](C3)N4)n1)CCN(c1cccc3cccc(Cl)c13)C2` (single isomer, unassigned) [Example 90] had a pIC50 at KRas G12D [1] of 5.83. The pKd on KRas G12D [3] was 6.03.

At KRas G12D [1], `CN1CCC[C@H]1COc1nc2c(c(N3C[C@H]4CC[C@@H](C3)N4)n1)CCN(c1cccc3c1CCCC3)C2` [Example 71, 4-((1R,5S)-3,8-diazabicyclo[3.2.1]octan-3-yl)-2-(((S)-1-methylpyrrolidin-2-yl)methoxy)-7-(5,6,7,8-tetrahydronaphthalen-1-yl)-5,6,7,8-tetrahydropyrido[3,4-d]pyrimidine] showed a pIC50 of 5.75. At KRas G12D [3], this molecule showed a pKd of 5.37.

Values taken from US12686692B2, “KRas G12D inhibitors” (Mirati Therapeutics, Inc., priority 2020, dated 2026).
